In PubChem BioAssay (NCI):
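Following 48 hours of exposure in 96-well plates, responses at five concentrations were used to interpolate endpoints linearly. GI50 = concentration required for 50% inhibition of growth. TGI is the concentration that stops growth completely.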

What was measured:
Assay in all cases: inhibition of tumour cell growth, NCI panel, 48 h
[1] = tested on: ACHN renal
[2] = tested on: CCRF-CEM leukemia
[3] = tested on: DU-145 prostate
[4] = tested on: EKVX NSCLC
[5] = tested on: HOP-62 NSCLC
[6] = tested on: HOP-92 NSCLC
[7] = tested on: M14 melanoma
[8] = tested on: PC-3 prostate
[9] = tested on: SF-268 CNS
[10] = tested on: OVCAR-8 ovarian

SMILES	TGI [1] [µM]	TGI [2] [µM]	TGI [3] [µM]	TGI [4] [µM]	TGI [5] [µM]	TGI [6] [µM]	TGI [7] [µM]	TGI [8] [µM]	TGI [9] [µM]	TGI [10] [µM]	GI50 [1] [µM]	GI50 [2] [µM]	GI50 [3] [µM]	GI50 [4] [µM]	GI50 [6] [µM]	GI50 [8] [µM]	GI50 [9] [µM]	GI50 [5] [µM]
N#Cc1nc(/C=C/c2cccnc2)oc1N	> 100	> 100	> 100	> 100	> 100	> 100	> 100	> 100	> 100	–	–	–	–	–	–	–	–	–
CC(C)C(NC(=O)C(Cc1ccccc1)NC(=O)[C@H]1CCC[C@H]1NC(=O)C(Cc1ccc(OC(C)(C)C)cc1)NC(=O)OC(C)(C)C)C(N)=O (stereo not given in full)	> 100	39.4	> 100	> 100	32.5	48.9	33.6	54	70	34.9	–	–	–	–	–	–	–	–
O=C1c2cc([N+](=O)[O-])sc2C(=O)c2c([N+](=O)[O-])csc21	0.779	0.389	3.07	3.4	–	0.82	1.26	3.09	0.994	3.04	–	–	–	–	–	–	–	–
C=C(C)[C@@H]1CC[C@]2(C(=O)NC(C)=O)CC[C@]3(C)[C@H](CC[C@@H]4[C@@]5(C)CCCNC(C)(C)[C@@H]5CC[C@]43C)[C@@H]12	3.15	4.55	2.94	3.23	–	2.89	–	3.5	3.25	–	1.77	1.65	1.57	1.6	1.33	1.59	1.69	–
O=C1C(c2c(O)[nH]c3ccc(S(=O)(=O)NCCO)cc23)=Nc2ccccc21	> 100	> 100	46.8	> 100	> 100	82.4	> 100	54.3	51	> 100	–	–	–	–	–	–	–	–
CC/C(=C\c1ccc(OC)cc1)c1ccc(OC)cc1	> 100	> 100	> 100	> 100	> 100	> 100	> 100	> 100	> 100	> 100	–	–	–	–	–	–	–	–
CC(C)(C)C1=C(Br)C(OC(=O)C(F)(F)F)(C(C)(C)C)OP1(=O)c1ccccc1 (stereo not given)	> 100	–	> 100	69	76.8	92.5	> 100	93.5	> 100	> 100	–	–	–	–	–	–	–	–
CN(C)CCNC(=O)c1c(O)ccc2c1c1c(n2CCc2ccccc2)C(=O)c2ccccc2C1=O	23	6.43	20.9	28.5	23.1	22.7	3.47	29.1	15	23.4	–	–	–	–	–	–	–	–
O=P(O)(O)CN1CCNCCN(CP(=O)(O)O)CC1	> 100	> 70.5	> 100	> 100	> 100	> 100	> 100	> 100	> 100	> 51	–	–	–	–	–	–	–	–
Cc1ccc(S(=NS(=O)(=O)c2ccc(C)cc2)c2ccc(C)cc2)cc1	> 100	> 100	> 100	> 100	> 100	> 100	> 100	> 100	> 100	> 100	–	–	–	–	–	–	–	–
CCOC(=O)C1=C(C)N(Cc2ccccc2)C2(O)C=CC(=O)C3=C(O)c4ccccc4C(=O)C312 (stereo not given)	34.6	36.5	38.3	39.6	31.8	41.8	16.3	> 100	23.7	39	–	–	–	–	–	–	–	–
NS(=O)(=O)c1ccc(N=Nc2ccc(O)c(C(=O)O)c2)cc1	> 100	–	> 100	> 100	> 100	> 100	> 100	> 100	> 100	> 100	–	–	–	–	–	–	–	–
COc1ccc2c(c1)CCC/C2=N\NS(=O)(=O)c1c(C)cc(C)cc1C	> 100	63.7	68.1	98.5	> 100	54.7	> 100	> 100	–	85.3	–	–	–	–	–	–	–	–
Cc1ccccc1NC(=O)Cc1csc(N=Nc2c(O)[nH]c3ccccc23)n1	> 100	> 100	> 100	> 100	–	> 100	> 100	37.2	> 100	43.1	–	–	–	–	–	–	–	–
CC(NC(=O)C(Cc1ccc(OC(=O)c2ccccc2)cc1)NC(=O)OC(C)(C)C)C(=O)NCC(=O)NC(Cc1ccccc1)C(=O)NN (stereo not given)	> 100	–	> 100	> 100	> 100	> 100	> 100	> 100	> 100	> 100	–	–	–	–	–	–	–	–
CC(=O)NC1C(OCc2ccccc2)OC(CO)C(O)C1OCC(=O)N[C@@H](C)C(=O)N[C@H](CCC(=O)NCCCNc1ccc([N+](=O)[O-])c2[nH]c3ccccc3c(=O)c12)C(N)=O (stereo not given in full)	> 100	> 100	> 100	> 100	> 100	> 100	> 100	> 100	–	> 100	–	–	–	–	–	–	–	–
C=C(C)[C@@H]1CC[C@]2(CO)CC[C@]3(C)[C@H](CC[C@@H]4[C@@]5(C)CC[C@H](NCO)C(C)(C)[C@@H]5CC[C@]43C)[C@@H]12	1.65	3.21	1.58	1.64	1.74	1.6	–	1.85	1.92	–	0.943	1.02	0.878	0.869	0.783	0.85	0.944	0.862
CC[C@@]1(O)C(=O)OCc2c1cc1n(c2=O)Cc2c-1nc1ccccc1c2/C=N\NC(=O)C(N)Cc1c[nH]c2ccccc12 (stereo not given in full)	0.446	3.44	> 100	> 100	–	> 54	8.77	> 100	19.6	25	–	–	–	–	–	–	–	–
CCOC(=O)c1cc(Br)c(-c2cc(C)co2)[nH]1	–	> 100	> 100	> 100	> 100	> 100	> 100	> 100	> 100	> 100	–	–	–	–	–	–	–	–
